Measurements from publication PMC3285450 (Journal of Medicinal Chemistry, 2010).

What was measured:
[1] = pharmacokinetic screening by oral cassette dosing in mice; settings: blood pharmacokinetic profile, Figure S3
[2] = in vivo; settings: male, CFW, mouse, po, 5 mg/kg
[3] = molecular target: T1, Human sEH (Homo sapiens, UniProt P34913); settings: for improved potency over compound 40: versus compound 40, reached the LOQ of the in vitro assay
T1 sequence (P34913 1-555): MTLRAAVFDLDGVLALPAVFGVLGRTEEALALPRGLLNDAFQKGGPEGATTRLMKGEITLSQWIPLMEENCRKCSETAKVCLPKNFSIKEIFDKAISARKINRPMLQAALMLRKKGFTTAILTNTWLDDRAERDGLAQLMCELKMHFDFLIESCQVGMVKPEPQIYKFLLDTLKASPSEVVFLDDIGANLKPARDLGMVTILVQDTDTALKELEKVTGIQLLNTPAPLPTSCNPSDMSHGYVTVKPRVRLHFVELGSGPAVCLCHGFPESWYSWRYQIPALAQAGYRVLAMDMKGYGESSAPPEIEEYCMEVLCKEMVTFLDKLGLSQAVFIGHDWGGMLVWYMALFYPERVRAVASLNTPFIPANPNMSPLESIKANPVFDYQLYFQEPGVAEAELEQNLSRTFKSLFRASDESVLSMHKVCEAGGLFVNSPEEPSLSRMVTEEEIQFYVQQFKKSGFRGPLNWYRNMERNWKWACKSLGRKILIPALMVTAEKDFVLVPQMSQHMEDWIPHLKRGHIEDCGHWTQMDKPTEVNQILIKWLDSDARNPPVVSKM

[4] = molecular target: T2, murine sEH (Mus musculus, UniProt P34914); experiment: fluorescent
T2 sequence (P34914 1-554): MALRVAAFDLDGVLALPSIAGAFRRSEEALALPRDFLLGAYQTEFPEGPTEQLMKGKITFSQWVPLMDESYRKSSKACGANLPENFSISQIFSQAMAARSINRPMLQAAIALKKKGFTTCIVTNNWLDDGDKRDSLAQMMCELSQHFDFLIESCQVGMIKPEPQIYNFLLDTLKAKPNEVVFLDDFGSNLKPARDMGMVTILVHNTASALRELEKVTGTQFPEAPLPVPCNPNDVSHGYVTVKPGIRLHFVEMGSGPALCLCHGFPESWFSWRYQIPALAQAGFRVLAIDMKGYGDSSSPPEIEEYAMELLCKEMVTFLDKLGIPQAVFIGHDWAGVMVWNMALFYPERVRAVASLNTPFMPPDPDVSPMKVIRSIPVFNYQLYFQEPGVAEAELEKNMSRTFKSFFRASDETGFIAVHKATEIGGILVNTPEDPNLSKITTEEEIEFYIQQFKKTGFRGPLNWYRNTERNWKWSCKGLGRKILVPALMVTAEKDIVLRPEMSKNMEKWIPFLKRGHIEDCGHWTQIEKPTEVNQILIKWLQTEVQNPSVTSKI

[5] = system: carrageenan induced inflammatory pain; type: in vivo, Male Sprague-Dawley rats; settings: for reversal of carrageenan induced pain (mechanical withdrawal threshold): rats, intraplantar, 3 hr after carrageenan, sEHi 10 ng/paw, morphine 10,000 ng/paw, n=6
[6] = hydrolytic stability; type: physicochemical

Compound: CC(=O)N1CCC(NC(=O)NC23CC4CC(CC(C4)C2)C3)CC1 [APAU]
- AUC [1]: small
- halflife [1]: very short

Compound: O=C(O)CCCCCCCCCCCNC(=O)NC12CC3CC(CC(C3)C1)C2 [AUDA, 12-(3-adamantane-1-yl-ureido)dodecanoic acid, reference compound]
- AUC(0-t) [2]: 0.05 µM·h

Compound: CCC(=O)N1CCC(NC(=O)Nc2ccccc2)CC1 [Compound 7]
- drop in potency against the human enzyme versus cyclohexyl compound 4 ([3]; versus compound 4): 11 fold

Compound: CCC(=O)N1CCC(NC(=O)Nc2cccc(F)c2)CC1 [Compound 28]
- lower IC50 than para-fluorophenyl 24, human enzyme ([3]; versus compound 24): 2 fold
- lower IC50 than para-fluorophenyl 24, murine enzyme ([4]; versus compound 24): 5 fold

Compound: O=C(Nc1ccc(OC(F)(F)F)cc1)NC1CCN(C(=O)C2CC2)CC1 [Compound 52, 1-(1-(cyclopropanecarbonyl)piperidin-4-yl)-3-(4-(trifluoromethoxy)phenyl)urea]
- AUC(0-t) [2]: 164 µM·h
- Cmax [2]: 8.9 µM
- Tmax [2]: 3.17 h
- half-life [2]: 19.7 h
- increase in potency compared to morphine, reducing hyperalgesia ([5]; mechanical withdrawal threshold, carrageenan model): 1000 fold
- reversal of carrageenan induced pain (mechanical withdrawal threshold) [5]: significantly reversed carrageenan induced pain
- increase in potency over adamantane analogue 2 ([3]; versus compound 2): 7 fold
- improved potency over compound 40 [3]: approximately 9 fold
- improvement from AUDA, exposure in murine blood and murine potency data ([4]; Figure S5, versus AUDA): 10^5

Compound: O=C(Nc1ccc(OC(F)(F)F)cc1)NC1CCN(C(=O)C(F)(F)F)CC1 [Compound 53]
- hydrolytic stability [6]: hydrolytic instability
- improved potency over compound 40 [3]: approximately 9 fold

Compound: CN1CC[C@]23c4c5ccc(O)c4O[C@H]2[C@@H](O)C=C[C@H]3[C@H]1C5 [morphine, reference compound]
- reversal of carrageenan induced pain (mechanical withdrawal threshold) [5]: significantly reversed carrageenan induced pain
